Source: patent US20250032477A1, “COMPOUNDS, PHARMACEUTICAL COMPOSITIONS, AND METHODS FOR THE TREATMENT, PREVENTION, OR MANAGEMENT OF HYPERPROLIFERATIVE DISORDERS” (VINCERX PHARMA GMBH, priority 2021, published 2025)
Structures can show the parent of a compound that is named as a salt. Where two headings read alike, the source gives them in different places.

How the values were obtained:
SUM149 [1] = experiment: Cytotoxicity in vitro in the presence and absence of elastase (MTT); format: cell-based
Method: (§1) Cultivation of cells was performed according to standard procedures with the media recommended by the provider. The cells, in a total volume of 100 μL, were seeded in a 96-well plate with a white bottom (#3610). After a 24 h incubation period at 37° C. and […], the medium was exchanged by adding 90 μL fresh medium. The treatment started by adding the test compound in 10 μL of culture medium to the cells in triplicates. Concentrations ranging from 10^−5 M to 10^−13 M were chosen. Two identically treated sets of samples were prepared. One set was treated with the test compound alone, whereas to the second set the compound and 10 nM elastase was added followed by a 72 h incubation period at 37° C. and 5% CO2. The proliferation was detected using the MTT assay (ATCC). At the end of the incubation period the MTT reagent was added to all samples for 4 h. Lysis of the cells followed by addition of the detergent was done overnight. The formed dye was detected at 570 nm. The proliferation of untreated but otherwise identically handled cells was define as the […].

SUM149 [2] = experiment: Cytotoxicity assay (Version 2), automated, AC50, with or without elastase; format: cell-based
Method: as §1
(§2) The Cytotoxicity assay (Version 2) was performed as above described. Some changes were applied as the assays were performed in an automated fashion and the IC50 values determination was changed. Here the change in metabolic activity of the cells, in percent, was calculated by normalization of the measured values to the absorbance values of medium containing wells without cells (=−100%) and the absorbance of the DMSO-treated cells (=0%). AC50 values (activity concentration at −50%) were determined by means of a 4 parameter Hill-fit using GeneData Screener software.

786-O [3] = experiment: Cytotoxicity in vitro in the presence and absence of elastase (MTT); format: cell-based, human
Method: as §1

NCI H292 [4] = experiment: as above; format: cell-based, human
Method: as §1

HT29 [5] = experiment: as above; format: cell-based, human
Method: as §1

786-O [6] = experiment: Cytotoxicity assay (Version 2), automated, AC50, with or without elastase; format: cell-based, human
Method: as §1, §2

NCI H292 [7] = experiment: as above; format: cell-based, human
Method: as §1, §2

HT29 [8] = experiment: as above; format: cell-based, human
Method: as §1, §2

in vitro = conditions: human, Caco-2
Method: Caco-2: The cell permeability of a substance can be investigated by means of in vitro testing in a flux assay using Caco-2 cells [M. D. Troutman and D. R. Thakker, Pharm. Res. 20 (8), 1210-1224 (2003)]. For this purpose, the cells were cultured for 15-16 days on 24-well filter plates. For the determination of permeation, the respective test substance was applied in a HEPES buffer to the cells either apically (A) or basally (B) and incubated for 2 hours. After 0 hours and after 2 hours, samples were taken from the cis and trans compartments. The samples were separated by HPLC (Agilent 1200, Böblingen, Germany) using reverse phase columns. The HPLC system was coupled via a Turbo Ion Spray Interface to a Triple Quadropol mass spectrometer API 4000 (AB SCIEX Deutschland GmbH, Darmstadt, Germany). The permeability was evaluated on the basis of a Papp value, which was calculated using the formula published by Schwab et al. [D. Schwab et al., J. Med. Chem. 46, 1716-1725 (2003)]. A substance was classified as actively transported when the ratio of Papp (B-A) to Papp (A-B) (efflux ratio) was >2 or <0.5. Compounds with an efflux ratio of 0.5-2 are considered not actively transported. In Table 5, reference compounds are provided for comparison. Ref 1 is exatecan mesylate, Ref 2 is DXd, and Ref 3 is 10,11-methylenedioxy-camptothecin (FL118).

[9] = SUM149 cells, with 10 nM elastase, 72 h, MTT, read-out: SUM149 IC50 w elastase
[10] = SUM149 cells, without elastase, 72 h, MTT, read-out: SUM149 IC50 w/o
[11] = Homo sapiens, 786-0, 786-O cells, with 10 nM elastase, 72 h, MTT, read-out: 786-O IC50 w elastase
[12] = Homo sapiens, 786-0, 786-O cells, without elastase, 72 h, MTT, read-out: 786-O IC50 w/o
[13] = Homo sapiens, NCI H292 cells, with 10 nM elastase, 72 h, MTT, read-out: NCI H292 IC 50 w elastase
[14] = Homo sapiens, NCI H292 cells, without elastase, 72 h, MTT, read-out: NCI H292 IC 50 w/o
[15] = Homo sapiens, HT-29, HT29 cells, with 10 nM elastase, 72 h, MTT, read-out: HT29 IC50 w elastase
[16] = Homo sapiens, HT-29, HT29 cells, without elastase, 72 h, MTT, read-out: HT29 IC50 w/o

CCN(CC)[C@H]1CCc2c(C)c(F)cc3nc4c(c1c23)Cn1c-4cc2c(c1=O)COC(=O)[C@]2(O)CC [Compound 17, (1S,9S)-1-(diethylamino)-9-ethyl-5-fluoro-9-hydroxy-4-methyl-1,2,3,9,12,15-hexahydro-10H,13H-benzo[de]pyrano[3′,4′:6,7]indolizino[1,2-b]quinoline-10,13-dione]
IC50 (SUM149 [1]; [9]): 0.1 to 1 nM
IC50 (SUM149 [1]; [10]): 0.1 to 1 nM
AC50 (SUM149 [2]; SUM149 cells, Version 2, with elastase, activity concentration at −50%, read-out: SUM149 AC50 +elastase): 1.1 to 10 nM
AC50 (SUM149 [2]; SUM149 cells, Version 2, without elastase, activity concentration at −50%, read-out: SUM149 AC50 −elastase): 1.1 to 10 nM
IC50 (786-O [3]; [11]): 1.1 to 10 nM
IC50 (786-O [3]; [12]): 1.1 to 10 nM
IC50 (NCI H292 [4]; [13]): 1.1 to 10 nM
IC50 (NCI H292 [4]; [14]): 1.1 to 10 nM
IC50 (HT29 [5]; [15]): 1.1 to 10 nM
IC50 (HT29 [5]; [16]): 1.1 to 10 nM
AC50 (786-O [6]; Homo sapiens, 786-0, 786-O cells, Version 2, with elastase, activity concentration at −50%, read-out: 786-O AC50 +elastase): 1.1 to 10 nM
AC50 (786-O [6]; Homo sapiens, 786-0, 786-O cells, Version 2, without elastase, activity concentration at −50%, read-out: 786-O AC50 −elastase): 1.1 to 10 nM
AC50 (NCI H292 [7]; Homo sapiens, NCI H292 cells, Version 2, with elastase, activity concentration at −50%, read-out: NCI H292 AC50 +elastase): 1.1 to 10 nM
AC50 (NCI H292 [7]; Homo sapiens, NCI H292 cells, Version 2, without elastase, activity concentration at −50%, read-out: NCI H292 AC50 −elastase): 1.1 to 10 nM
AC50 (HT29 [8]; Homo sapiens, HT-29, HT29 cells, Version 2, with elastase, activity concentration at −50%, read-out: HT29 AC50 +elastase): 11 to 100 nM
AC50 (HT29 [8]; Homo sapiens, HT-29, HT29 cells, Version 2, without elastase, activity concentration at −50%, read-out: HT29 AC50 −elastase): 11 to 100 nM
Papp A→B at 2 h (in vitro): 10 to 99.9 ×10⁻⁶ cm/s
efflux ratio at 2 h (in vitro): 0.5 to 2

CC[C@@]1(O)C(=O)OCc2c1cc1n(c2=O)Cc2c-1nc1cc(F)c(C)c3c1c2[C@@H](NC(=O)Cc1ccncc1)CC3 [Compound 9, N-[(1S,9S)-9-ethyl-5-fluoro-9-hydroxy-4-methyl-10,13-dioxo-2,3,9,10,13,15-hexahydro-1H,12H-benzo[de]pyrano[3′,4′:6,7]indolizino[1,2-b]quinolin-1-yl]-2-(pyridin-4-yl)acetamide]
IC50 (SUM149 [1]; [9]): 0.01 to 0.1 nM
IC50 (SUM149 [1]; [10]): 0.01 to 0.1 nM
IC50 (786-O [3]; [11]): 0.1 to 1 nM
IC50 (786-O [3]; [12]): 0.1 to 1 nM
IC50 (NCI H292 [4]; [13]): 0.1 to 1 nM
IC50 (NCI H292 [4]; [14]): 0.1 to 1 nM
IC50 (HT29 [5]; [15]): 0.1 to 1 nM
IC50 (HT29 [5]; [16]): 1.1 to 10 nM
Papp A→B at 2 h (in vitro): 0.1 to 0.9 ×10⁻⁶ cm/s
efflux ratio at 2 h (in vitro): > 2

CC[C@@]1(O)C(=O)OCc2c1cc1n(c2=O)Cc2c-1nc1cc(F)c(C)c3c1c2[C@@H](NC(=O)C(F)(F)F)CC3 [Compound 8, N-[(1S,9S)-9-ethyl-5-fluoro-9-hydroxy-4-methyl-10,13-dioxo-2,3,9,10,13,15-hexahydro-1H,12H-benzo[de]pyrano[3′,4′:6,7]indolizino[1,2-b]quinolin-1-yl]-2,2,2-trifluoroacetamide]
IC50 (SUM149 [1]; [9]): < 0.01 nM
IC50 (SUM149 [1]; [10]): < 0.01 nM
IC50 (786-O [3]; [11]): 0.01 to 0.1 nM
IC50 (786-O [3]; [12]): 0.01 to 0.1 nM
IC50 (NCI H292 [4]; [13]): 0.01 to 0.1 nM
IC50 (NCI H292 [4]; [14]): 0.01 to 0.1 nM
IC50 (HT29 [5]; [15]): 0.01 to 0.1 nM
IC50 (HT29 [5]; [16]): 0.01 to 0.1 nM
Papp A→B at 2 h (in vitro): 1 to 9.9 ×10⁻⁶ cm/s
efflux ratio at 2 h (in vitro): > 2

CC[C@@]1(O)C(=O)OCc2c1cc1n(c2=O)Cc2c-1nc1cc(F)c(C)c3c1c2[C@@H](NC(C)=O)CC3 [Compound 7, N-[(1S,9S)-9-ethyl-5-fluoro-9-hydroxy-4-methyl-10,13-dioxo-2,3,9,10,13,15-hexahydro-1H,12H-benzo[de]pyrano[3′,4′:6,7]indolizino[1,2-b]quinolin-1-yl]acetamide]
IC50 (SUM149 [1]; [9]): < 0.01 nM
IC50 (SUM149 [1]; [10]): < 0.01 nM
IC50 (786-O [3]; [11]): 0.01 to 0.1 nM
IC50 (786-O [3]; [12]): 0.01 to 0.1 nM
IC50 (NCI H292 [4]; [13]): 0.01 to 0.1 nM
IC50 (NCI H292 [4]; [14]): 0.01 to 0.1 nM
IC50 (HT29 [5]; [15]): 0.01 to 0.1 nM
IC50 (HT29 [5]; [16]): 0.01 to 0.1 nM
Papp A→B at 2 h (in vitro): 0.1 to 0.9 ×10⁻⁶ cm/s
efflux ratio at 2 h (in vitro): > 2

CCN[C@H]1CCc2c(C)c(F)cc3nc4c(c1c23)Cn1c-4cc2c(c1=O)COC(=O)[C@]2(O)CC.O=C(O)C(F)(F)F [Compound 16, trifluoroacetic acid (1S,9S)-9-ethyl-1-(ethylamino)-5-fluoro-9-hydroxy-4-methyl-1,2,3,9,12,15-hexahydro-10H,13H-benzo[de]pyrano[3′,4′:6,7] indolizino[1,2-b]quinoline-10,13-dione (1/1)]
IC50 (SUM149 [1]; [9]): 0.01 to 0.1 nM
IC50 (SUM149 [1]; [10]): 0.01 to 0.1 nM
IC50 (786-O [3]; [11]): 0.1 to 1 nM
IC50 (786-O [3]; [12]): 0.1 to 1 nM
IC50 (NCI H292 [4]; [13]): 0.1 to 1 nM
IC50 (NCI H292 [4]; [14]): 0.1 to 1 nM
IC50 (HT29 [5]; [15]): 0.1 to 1 nM
IC50 (HT29 [5]; [16]): 0.1 to 1 nM
Papp A→B at 2 h (in vitro): 10 to 99.9 ×10⁻⁶ cm/s
efflux ratio at 2 h (in vitro): 0.5 to 2

CCCNC(=O)Nc1cccc(S(=O)(=O)Nc2cccc([C@@H](CC(=O)O)NC(=O)Nc3ccc(NC(=O)NCCOCCOCCOCCC(=O)N[C@@H](CC(=O)O)C(=O)N4CCC[C@H]4C(=O)N[C@H](C(=O)O[C@]4(CC)C(=O)OCc5c4cc4n(c5=O)Cc5cc6cc7c(cc6nc5-4)OCO7)C(C)C)cc3)c2)c1 [Compound 5, (7S)-7-ethyl-8,11-dioxo-7,8,11,13-tetrahydro-2H,10H-[1,3]dioxolo[4,5-g]pyrano [3′,4′:6,7]indolizino[1,2-b]quinolin-7-yl N-(14-{4-[({(1R)-2-carboxy-1-[3-({3-[(propylcarbamoyl)amino]benzene-1-sulfonyl}amino)phenyl]ethyl}carbamoyl)amino]anilino}-14-oxo-4,7,10-trioxa-13-azatetradecanan-1-oyl)-L-alpha-aspartyl-L-prolyl-L-valinate-bis sodium salt]
IC50 (SUM149 [1]; read-out: SUM149 IC50 w elastase): < 0.01 nM
IC50 (SUM149 [1]; read-out: SUM149 IC50 w/o): 1.1 to 10 nM
AC50 (SUM149 [2]; read-out: SUM149 AC50 +elastase): < 1 nM
AC50 (SUM149 [2]; read-out: SUM149 AC50 −elastase): 11 to 100 nM
IC50 (786-O [3]; read-out: 786-O IC50 w elastase): < 0.01 nM
IC50 (786-O [3]; read-out: 786-O IC50 w/o): 1.1 to 10 nM
IC50 (NCI H292 [4]; read-out: NCI H292 IC 50 w elastase): < 0.01 nM
IC50 (NCI H292 [4]; read-out: NCI H292 IC 50 w/o): 1.1 to 10 nM
IC50 (HT29 [5]; read-out: HT29 IC50 w elastase): < 0.01 nM
IC50 (HT29 [5]; read-out: HT29 IC50 w/o): 10 to 100 nM
AC50 (786-O [6]; read-out: 786-O AC50 +elastase): 1.1 to 10 nM
AC50 (786-O [6]; read-out: 786-O AC50 −elastase): > 100 nM
AC50 (NCI H292 [7]; read-out: NCI H292 AC50 +elastase): < 1 nM
AC50 (NCI H292 [7]; read-out: NCI H292 AC50 −elastase): > 100 nM
AC50 (HT29 [8]; read-out: HT29 AC50 +elastase): 1.1 to 10 nM
AC50 (HT29 [8]; read-out: HT29 AC50 −elastase): > 100 nM
